From patent US12590100B2, “Tetrahydro-spiroindoline-pyrrolopyrrole-triones inhibitors of the NRF2-β-TrCP interaction for use in the treatment of fatty liver disease” (Universidad Autonoma De Madrid, priority 2021, dated 2026) come the findings set out here.

Test [1] deals with transcriptional activity of NRF2. As to the kind of experiment: ARE luciferase reporter assay in MCF-7 c32 ARE-LUC cells. The test is classed as cell-based. The following applies: 9 μM, 16 h. The procedure:
FIG. 4. […] MEFs in serum-depleted conditions were subjected to (A-C) 1 μM, 3 μM, or 10 μM of PHAR and 10 μM of SFN as a positive control for 16 h; or (D-F) 10 μM of PHAR for the indicated times. In both experiments, 0.1% DMSO was used as a vehicle. A), representative immunoblots of NRF2, HO1, KEAP1, LAMINB, and GAPDH as loading controls. B) and C), densitometric analysis of NRF2 and HO1 protein levels of the representative immunoblots depicted in (A), expressed as a ratio of NRF2/LAMINB or HO1/GAPDH. The data is depicted as means±SEM (n=3). Statistical analysis was performed with one-way ANOVA followed by the Bonferroni test to check inter-group differences. *p<0.05; ***p<0.001 vs. 0. D), representative immunoblots of NRF2, HO1, KEAP1, LAMINB, and GAPDH as loading controls. E) and F), Densitometric analysis of NRF2 and HO1 protein levels of the representative immunoblots of (D), expressed as a ratio of NRF2/LAMINB or HO1/GAPDH. The data is depicted as means±SEM (n=3). Statistical analysis was performed with one-way ANOVA followed by the Bonferroni test to check inter-group differences. *p<0.05; ***p<0.001 vs. 0. […] Luciferase activity was measured after 16 h of treatment. […] The mRNA levels of Hmox1, Nqo1, Aox1, Glc, and Gclm after 8 h of treatment were determined by means of pRT-PCR and normalized by means of average LaminB, Gapdh, and β-actin. […]
Background: Reporter assays use an easily measured gene product as a stand-in for the process of interest.

For test [2], the system named is NRF2. Nature of the test: NRF2 and HO-1 protein levels in MEFs (immunoblot). In kind it is cell-based, mouse. Conditions: SFN 10 μM. The procedure: FIG. 4. […] MEFs in serum-depleted conditions were subjected to (A-C) 1 μM, 3 μM, or 10 μM of PHAR and 10 μM of SFN as a positive control for 16 h; or (D-F) 10 μM of PHAR for the indicated times. In both experiments, 0.1% DMSO was used as a vehicle. A), representative immunoblots of NRF2, HO1, KEAP1, LAMINB, and GAPDH as loading controls. B) and C), densitometric analysis of NRF2 and HO1 protein levels of the representative immunoblots depicted in (A), expressed as a ratio of NRF2/LAMINB or HO1/GAPDH. The data is depicted as means±SEM (n=3). Statistical analysis was performed with one-way ANOVA followed by the Bonferroni test to check inter-group differences. *p<0.05; ***p<0.001 vs. 0. D), representative immunoblots of NRF2, HO1, KEAP1, LAMINB, and GAPDH as loading controls. E) and F), Densitometric analysis of NRF2 and HO1 protein levels of the representative immunoblots of (D), expressed as a ratio of NRF2/LAMINB or HO1/GAPDH. The data is depicted as means±SEM (n=3). Statistical analysis was performed with one-way ANOVA followed by the Bonferroni test to check inter-group differences. *p<0.05; ***p<0.001 vs. 0. G), Reporter MCF-7 c32 ARE-luc cells were subjected to 1 μM, 3 μM, or 9 μM of PHAR and 10 μM of SFN as a positive control. 0.1% DMSO was used as a vehicle. Luciferase activity was measured after 16 h of treatment. The data is depicted as means±SEM (n=3). Statistical analysis was performed with one-way ANOVA followed by the Bonferroni test to check inter-group differences. **p<0.01; ***p<0.001 vs. 0. H), MTT assay to evaluate cell viability/toxicity after treatments. I), Serum-deprived MEFs were subjected to 10 μM of PHAR. The mRNA levels of Hmox1, Nqo1, Aox1, Glc, and Gclm after 8 h of treatment were determined by means of pRT-PCR and normalized by means of average LaminB, Gapdh, and β-actin. The data is depicted as means±SEM (n=3). Statistical analysis was performed with the Student's T test. *p<0.05; **p<0.01 ***p<0.001 vs. 0.
In order to empirically determine if PHAR activates NRF2, mouse embryo fibroblasts (MEFs) were treated with several doses of the compound (1 μM, 3 μM, and […]) for 16 h and with 10 μM of sulforaphane (SFN), one of main electrophilic activators of NRF2, used as a positive control.
Moreover, a time course of NRF2 activation with PHAR (10 μM for 2, 4, and 8 h) or with SFN (10 μM, 8 h) was done as a positive control.
(In general: In western blotting, separated proteins are transferred to a membrane and probed.)

The subject of test [3] is NRF2. As to the kind of experiment: NRF2 and HO-1 protein levels in mouse tissues after IP treatment. The test is classed as in vivo. The following applies: C57BL/6 mice, single IP 50 mg/kg, 120 min. The procedure:
FIG. 9. PHAR activates NRF2 and HO-1 in liver. A), UV and MS spectrum derived from the HPLC-MS analysis of PHAR dissolved in methanol for the identification of peaks associated with the compound. A blue rectangle surrounds the mass associated with PHAR. (B-D), the mice were treated with the vehicle (Tween-80+PBS, 1:13), 50 mg/kg of PHAR, or 50 mg/kg of SFN (saline) as a positive control by means of intraperitoneal (IP) injection for 2 hours. B), HPLC-MS UV and MS spectra derived from representative liver samples of both experimental groups used for determining PHAR levels in the liver 120 min after a single IP injection of 50 mg/kg. A blue rectangle surrounds the mass associated with PHAR. C), representative immunoblots showing NRF2, HO1, and LAMINB protein levels as the liver extract loading control. D), densitometric analysis of NRF2 protein levels of the representative immunoblots shown in (C), expressed as a ratio of NRF2/LAMINB. Statistical analysis was performed with one-way ANOVA followed by the Bonferroni test to compare inter-group differences. ***p<0.001 vs. vehicle. E) and F), the mice were treated daily with vehicle (Tween-80+PBS, 1:13) or 50 mg/kg of PHAR by means of intraperitoneal injection for 5 days. E), representative immunoblots showing NRF2, HO1, and LAMINB protein levels as loading control in brain, liver and kidney. F), densitometric analysis of NRF2 and HO1 protein levels in the liver tissue of the representative immunoblots shown in (E), expressed as a ratio of NRF2/LAMINB or HO1/LAMINB levels. Statistical analysis was performed with a Student t test to compare inter-group differences. **p<0.01 vs. vehicle.
Once the mechanism of action of PHAR was deciphered, the capacity thereof to induce NRF2 levels in a murine model was evaluated. C57BL/6 mice received a single intraperitoneal (IP) injection of 50 mg/kg PHAR (Tween-80+PBS, 1:13) or 50 mg/kg of SFN (saline) as a positive control. The UV spectrum derived from the HPLC-MS study of the PHAR compound dissolved in methanol alone helped the identification of the peak associated with the compound for subsequent identification in the tissue analysis. […] Taking this as a reference point, liver tissue analysis was performed to check for the presence of PHAR therein.
For this reason, C57BL/6 mice were treated daily by IP route for 5 days with 50 mg/kg of vehicle or 50 mg/kg of PHAR.

`C[S+]([O-])CCCCN=C=S` (stereo not shown) [SFN, sulforaphane, reference compound]: the “increase in luciferase activity” value in test [1] was “similar”. Moreover, the NRF2 accumulation result in the test on NRF2 [2] (16 h, PHAR 1, 3, 9 μM) is “accumulation induced by SFN”. Moreover, the “NRF2 accumulation, time course” value in the test with NRF2 [2] (PHAR 10 μM for 2, 4, 8 h, 8 h) is “induction generated by SFN”. The “liver NRF2 levels” value with NRF2 [3] is reported as “accumulation caused by SFN”.
